Measurements as given in patent US9259433B2, “Synergistic antiviral compositions comprising a viral attachment inhibitor, an integration inhibitor, and a proviral transcription inhibitor, and their use” (priority 2007, dated 2016).
Several values for one entry are separate records, joined by “and”; a condition that tells them apart may be missing. Identical values can stand only once. Like-named read-outs stand apart in the source and are kept apart here.

Columns and labels:
[1] = system: HSV-2; assay: Mouse vaginal model of HSV-2 infection; assay type: in vivo, female CF-1 mice
Source text: P4N was also found to be quite effective.

[2] = system: acyclovir-resistant strains of HSV-1; assay: Inhibition of acyclovir-resistant strains of HSV-1; assay type: cell-based
Source text: Because the inhibitory mechanism of this class of compounds is completely distinct from the antiviral mechanism of nucleoside analogue agents, there is little possibility of cross-resistance between these two classes of drugs.

[3] = system: HIV-1RTMF; assay: Drug combination study in H9 cells infected with HIV-1RTMF, p24 assay; assay type: cell-based
Source text: We tested drug combinations against two different cells infected with laboratory strain of HIV-1 RTMF. For these drug combinational studies, both the H9 cells and human PBMC have been used. We first tested how our inhibitors affect one specific strain of HIV which is resistant to drug against RT (HIV-1RTMF). Briefly H9 (1×10^5/ml) were infected with HIV-1RTMF strain with a multiplicity of infection of 0.1. These cells were further tested with three drugs, M522, Gen-1 and G4N, either in combination or separately (8, 10, 21B). After 4-day incubation at 37° C., H9 cells were subcultured with fresh culture medium containing appropriate concentrations 0, 1.25, 2.5, 5, 10, 20, 40 and 80 μM of each of the drugs, or of a combination of all three of the drugs, each at the indicated concentration. The inhibition for HIV-1 by these combinations of drugs was examined using p24 assay after 8 days.
(§1) Similarly, PBMC cells were isolated from a healthy blood sample and these cells were stimulated by PHA and IL-2. PBMC (5×10^6/ml) were infected with HIV-1RTMF. The cells were treated with three combinations of drugs, M522, Gen-1 and G4N. Fresh media and drugs were added after 4 days with drug concentrations 0, 1.25, 2.5, 5, 10, 20, 40 and 80 μM. The inhibition for HIV-1 by these combinations of drugs was also examined by using p24 assay after 8 days. […] In comparison, cytotoxicity for the three drugs combined to H9 cells was also analyzed using an MTT assay.

[4] = system: HSV-1; assay: Dorsal cutaneous guinea pig model of HSV-1 infection; assay type: in vivo
Experimental: M4N and G4N were tested for their abilities to prevent HSV-1 infection in two animal model systems. The dorsal cutaneous guinea pig model system is a well-established model for HSV-1 infection that has been used in several studies to comparatively assess the potential efficacy of different topical formulations for treatment of herpes labialis. Straten M V, Carrasco D, Lee P, Tyring S K, Arch. Dermatol 137, 1232-1235 2001.

[5] = system: HIV Sp1 enhancer sequence; assay: Binding to Sp1 enhancer sequence by ethidium displacement; conditions: excitation 517 nm, emission 596 nm
Source text: The mechanism underlying the antiviral action for NDGA derivatives was largely unknown before 1995. In 1995, Huang's group first reported a molecular study on 3′-O-methyl NDGA (FIG. 11, Mal 4)(15) isolated from creosote bush (Larrea tridentate) (16,3). […] NDGA derivatives interfere with the binding of transcription factor Sp1 to the promoter of the HIV proviral template. The target of Mal.4 is mapped to nucleotides −87 to −40, the Sp1 binding sites of the HIV long terminal repeat (LTR). […] However, large preparations of such NDGA derivatives from plant sources are labor intensive and costly. In anticipation of the possible clinical use of lignans in controlling Sp1-regulated viral and tumor growth in humans, nine different methylated NDGAs and several water soluble NDGA derivatives were synthesized chemically in large quantities with low cost (17, 18, 26, FIG. 11). Unsubstituted NDGA was used as the parent substrate. […]

[6] = Topical toxicity in guinea pigs; assay type: in vivo
[7] = mouse, in vivo
Source text: The efficacies of M4N and G4N against HSV-2 in a mouse vaginal model system were also examined. Progestin-treated female CF-1 mice (10 per group) were infected with HSV-2 in the absence or presence of G4N (in PBS), P4N (in PBS), or M4N in Vaseline (23). At the end of three days, the vaginal lavages were collected from the washings of the vagina regions. The status of the vaginal HSV-2 infection and replication were examined by their cytopathic effects on cultured human foreskin fibroblast cells. Monitoring and scoring were carried out by three persons independently.

[8] = biological target: T1, reverse transcriptase (Human immunodeficiency virus type 1 group M subtype B, UniProt P04585); assay: Reverse transcriptase activity and viral DNA levels in infected cells; assay type: cell-based, HIV
T1 construct: endogenous in cells; host or cells: HIV-infected cells (H9 cells named in the same paragraph)
Source text: (§2) a. Salvia genus of Labiaceae family contains approximately 1000 species. 78 of these are distributed in different regions in China. […] An INi search was established based on an assay-guided purification procedure utilizing different concentrations of methanol, propanol, a two-layer extraction system (low salt water/butanol), and a high resolution inverted phase HPLC (Sperisorb OD S-2).

[9] = biological target: wild type HIV-1 integrase (Human immunodeficiency virus type 1 group M subtype B, UniProt P04585); assay: Disintegration assay; assay type: biochemical; conditions: equal efficacy with deletion mutant
Experimental: (§3) To determine whether M522 and M532 are acting against the catalytic core domain specifically, disintegration assay was tested using deletion mutant IN containing only the core domain of HIV integrase. Such deletion mutant is defective for normal integration, but it is capable of catalyzing a reversal of the forward reaction, termed “disintegration”. The disintegration reaction can be assayed by using a deletion mutant HIV-1 integrase (IN^50-212) which lacks both the amino terminal zinc binding and the carboxyl terminal DNA binding domains but remains active in this assay, whereas such truncated IN loses activity in the 3′-processing and joining (strand transfer) assays. So, disintegration assay can be used to probe the site of drug-enzyme binding.

[10] = biological target: deletion mutant HIV-1 integrase (IN^50-212) (Human immunodeficiency virus type 1 group M subtype B, UniProt P04585); assay: Disintegration assay; assay type: biochemical; conditions: IN^50-212 core domain; equal efficacy with wild type
Experimental: as §3

[11] = system: HIV-1RTMF (AZT-resistant virus); assay: HIV replication in infected H9 cells, HIV/p24 monoclonal antibody assay; assay type: cell-based
Experimental: (§4) The inhibitory effect of M522 and M532 against HIV replication was further examined using 5 different strains of HIV-1, drug resistant and primary isolates in the presence of a variety of drug concentrations in infected H9 cells.
(§5) A series of drug concentrations ranging from 1.25 μg/ml to 160 μg/ml were used for testing the cytotoxicity of M522 and M532 in H9 cells, using the MTT assay to determine the viability of H9 cells in culture.

[12] = biological target: HIV-1 integrase (Human immunodeficiency virus type 1 group M subtype B, UniProt P04585); assay: HIV-1 integrase catalytic activity of 3'-joining to the target DNA; assay type: biochemical
Source text: as §2

[13] = system: HIV; assay: HIV entry in H9 cells; assay type: cell-based; conditions: compound by itself
Source text: as §2

[14] = system: H9 cells; assay type: cell-based; conditions: human, 192 h
Experimental: as §5, with “culture. […] In fact, the drug-protected, HIV-infected H9 cells appeared to be morphologically identical to the uninfected control cells (6).” for “culture.”
as §1

[15] = system: HIV-1; assay: Acute HIV-1 infection of H9 cells; assay type: cell-based; conditions: Human immunodeficiency virus 1
Source text: as §2

[16] = system: HIV-1MN; assay: HIV replication in infected H9 cells, HIV/p24 monoclonal antibody assay; assay type: cell-based; conditions: Human immunodeficiency virus 1
Source text: as §4

[17] = system: HIV-1L1OR/M461/L63P.V82T/184V (protease inhibitor resistant virus); assay: as above; assay type: cell-based; conditions: Human immunodeficiency virus 1, H9
Source text: as §4

[18] = system: HIV-1IIIB; assay: as above; assay type: cell-based; conditions: Human immunodeficiency virus 1
Source text: as §4

[19] = system: HIV-1IIIBA17 variant; assay: as above; assay type: cell-based; conditions: Human immunodeficiency virus 1, H9
Source text: as §4

[20] = system: HIV-1
[21] = system: HIV-1; conditions: read-out: inhibited HIV replication (IC90); FIG. 5

## C[C@H](Cc1ccc(OC(=O)CN(C)C)c(OC(=O)CN(C)C)c1)[C@@H](C)Cc1ccc(OC(=O)CN(C)C)c(OC(=O)CN(C)C)c1 [G4N, meso-1,4-bis[3,4-(dimethylaminoacetoxy)phenyl]-(2R,3S)dimethylbutane]
[1]; 0.1 mM
  average score: 0.5
  infection: ~12.5 % infection
[1]; 0.1 mM, 10 mice per group, day 3 vaginal lavage
  animals infected: 1 out of 10
[1]; 10 mM, 10 mice per group
  animals infected: no infections detected
[1]; 100 mM
  animals infected: no infections detected
[2]
  efficacy against acyclovir-resistant strains: no cross-resistance
[3]; H9 cells, p24 assay after 8 days, for the combination, this concentration of each drug, read-out: IC50
  IC50: 18 µM
[4]; 5 μM
  response to treatment (visual assessment): semi-effective
[4]; 10 μM
  response to treatment (visual assessment): more effective
[4]; 150 μM
  response to treatment (visual assessment): extremely effective
[4]; guinea pig, in vivo
  HSV-1 induced cutaneous lesion formation and viral shedding: effectively inhibited
[5]
  apparent equilibrium binding constant (Kapp): 3e+06 M⁻¹
[6]; highest soluble concentrations (150 mM)
  toxicity or dermal irritation: no evidence of toxicity or dermal irritation
[6]; topical application for six days, up to 50 mM
  toxicity: no evidence of toxicity

## COc1ccc(C[C@@H](C)[C@@H](C)Cc2ccc(OC)c(OC)c2)cc1OC [M4N, tetra-O-methyl NDGA]
[1]; 20 mg/ml in Vaseline
  infection in the other 4 mice: very little infection
  mice fully infected, out of 8: 4
  score of the fully infected mice: 3-4
[2]
  efficacy against acyclovir-resistant strains: retains complete efficacy
[7]
  toxicity: no toxicity

## O=C(/C=C/c1ccc(O)c2c1[C@H](C(=O)O)[C@@H](c1ccc(O)c(O)c1)O2)O[C@H](Cc1ccc(O)c(O)c1)C(=O)O [M522, lithospermic acid]
[8]; following drug treatment
  levels of intracellular strong stop and full-length viral DNA: remained unchanged
[8]; infected cells
  inhibition of reverse transcriptase activity: no inhibition of reverse transcriptase activity
[3]; Human immunodeficiency virus 1, H9, 192 h
  IC50: 4 to 6 µM
[9]
  inhibition of disintegration: inhibited
[10]
  inhibition of disintegration: inhibited
[11]; H9 cells infected with HIV-1RTMF in the presence of drug
  syncytia formation: syncytia formation was prevented
[11]; Human immunodeficiency virus 1, H9
  IC50: 2.5 µg/mL and 4.6 µM
[12]
  IC50: 0.48 µM
[13]
  prevention of HIV entry: Neither M522 nor M532 by itself prevents HIV entry
[14]
  CC100 (highest concentration tested, cells remained viable): 160 µg/mL
[15]
  IC50: 2 µM
[16]
  IC50: 16.7 µM and 9 µg/mL
[17]
  IC50: 6 µg/mL and 11.1 µM
[18]
  IC50: 11 µg/mL and 20.4 µM
[19]
  IC50: 1.1 µg/mL and 2 µM

## acetylated Tieghemelin [oAc-Gen-1]
[20]; preincubation of drug with CD4+ cells
  HIV-1 entry and infection in CD4+ cells: did not prevent HIV-1 entry and infection
[20]; preincubation of drug with HIV-1 virus
  infectivity of HIV-1: totally inactivated the infectivity
[21]
  IC90: ~10 µM
